Results reported in ChEMBL document CHEMBL1201862, “PubChem BioAssay data set” (2004).
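Five compound concentrations were applied to cells in 96-well plates for 48 hours; endpoints were derived by simple linear interpolation of the resulting dose-response curve. At the GI50, growth is halved.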 Activity calls are given as the source filed them. Rule as the data show it: active = GI50 up to about 1.1 µM and inactive = higher.

Experiments:
Experiment in all cases: growth of human tumour cells (NCI), 48 h
786-0 = system: 786-0
CAKI-1 = system: CAKI-1
HCT-116 = system: HCT-116
HOP-92 = system: HOP-92
Hs-578T = system: Hs-578T
MCF7 = system: MCF7
MDA-N = system: MDA-N
MOLT-4 = system: MOLT-4
NCI-H226 = system: NCI-H226
NCI-H522 = system: NCI-H522
PC-3 = system: PC-3
RPMI-8226 = system: RPMI-8226
SR = system: SR
SW-620 = system: SW-620
TK-10 = system: TK-10
U-251 = system: U-251
UACC-62 = system: UACC-62
UO-31 = system: UO-31
A498 = system: A498
NCI-H23 = system: NCI-H23

Measured: GI50

N#CCc1nc(-c2cc3ccc(O)cc3oc2=O)cs1
inactive: 786-0 > 100 µM | CAKI-1 > 100 µM | HCT-116 53.1 µM | HOP-92 > 100 µM | Hs-578T 66.1 µM | MCF7 47.6 µM | MDA-N 48.9 µM | MOLT-4 37.9 µM | NCI-H226 53.6 µM | NCI-H522 > 100 µM | PC-3 34.3 µM | RPMI-8226 25.7 µM | SR 29.4 µM | SW-620 39.6 µM | TK-10 > 100 µM | U-251 45.8 µM | UACC-62 22.6 µM | UO-31 37.2 µM

CCOC(OCC)[C@H](N)[C@@H](O)[C@@H](O)[C@H]1COC(C)(C)O1
inactive: 786-0 > 100 µM | A498 > 100 µM | HCT-116 > 100 µM | Hs-578T > 100 µM | MCF7 > 100 µM | MDA-N > 100 µM | MOLT-4 > 100 µM | NCI-H226 > 100 µM | NCI-H23 > 100 µM | PC-3 > 100 µM | RPMI-8226 > 100 µM | SR > 100 µM | SW-620 > 100 µM | TK-10 > 100 µM | U-251 > 100 µM | UACC-62 > 100 µM | UO-31 > 100 µM

N#Cc1sc2c(c1OC(=O)c1ccco1)c(=O)n(-c1ccccc1)c(=S)n2-c1ccccc1
inactive: 786-0 31.1 µM | CAKI-1 39.7 µM | HCT-116 19.2 µM | Hs-578T 57.4 µM | MCF7 31.2 µM | MDA-N 20.8 µM | MOLT-4 13.8 µM | NCI-H226 34.3 µM | NCI-H23 34.8 µM | NCI-H522 27.4 µM | PC-3 18.5 µM | RPMI-8226 22.4 µM | SR > 10 µM | SW-620 17.7 µM | TK-10 49.8 µM | U-251 25.3 µM | UACC-62 15.3 µM | UO-31 16 µM

CCCC(=O)Nc1ccc2c(c1)CN1C(=O)c3ccccc3C1=N2
inactive: 786-0 > 100 µM | CAKI-1 > 100 µM | HCT-116 > 100 µM | HOP-92 > 100 µM | Hs-578T > 100 µM | MCF7 > 100 µM | MDA-N > 100 µM | MOLT-4 > 100 µM | NCI-H226 > 100 µM | NCI-H23 > 100 µM | NCI-H522 > 100 µM | PC-3 > 100 µM | RPMI-8226 > 100 µM | SR > 100 µM | SW-620 > 100 µM | TK-10 > 100 µM | U-251 > 100 µM | UACC-62 > 100 µM | UO-31 > 100 µM

N#C/C(=C\c1ccc2ccccc2c1)C(=O)c1ccccc1
inactive: 786-0 > 61.8 µM | A498 > 85.7 µM | CAKI-1 > 100 µM | HCT-116 > 61.4 µM | Hs-578T 22.2 µM | MCF7 > 100 µM | MDA-N 44.6 µM | MOLT-4 23.5 µM | NCI-H226 > 100 µM | NCI-H23 > 57.4 µM | NCI-H522 > 92 µM | PC-3 51.5 µM | RPMI-8226 34.2 µM | SR 37.8 µM | SW-620 42.4 µM | TK-10 > 100 µM | U-251 21.9 µM | UACC-62 > 57 µM | UO-31 > 86.7 µM

C=C(C)CNC(=S)N(N)c1ccc(OC)cc1
inactive: 786-0 > 100 µM | HCT-116 > 100 µM | HOP-92 > 100 µM | Hs-578T > 100 µM | MCF7 > 100 µM | MDA-N 99.3 µM | MOLT-4 96.6 µM | NCI-H226 > 100 µM | NCI-H23 > 100 µM | NCI-H522 56.1 µM | PC-3 > 100 µM | RPMI-8226 > 100 µM | SR > 100 µM | SW-620 > 100 µM | TK-10 > 100 µM | U-251 > 100 µM | UACC-62 24.2 µM | UO-31 52.6 µM

COc1cc(-c2c[nH]c3ccccc23)nc(-c2c[nH]c3ccccc23)n1
inactive: 786-0 1.86 µM | A498 2.3 µM | CAKI-1 5.89 µM | HCT-116 3.43 µM | HOP-92 2.34 µM | Hs-578T 16.3 µM | MCF7 3.56 µM | MDA-N 4.05 µM | MOLT-4 2.9 µM | PC-3 2.84 µM | RPMI-8226 2.8 µM | SR 9.53 µM | SW-620 7.62 µM | TK-10 7.98 µM | U-251 4.19 µM | UACC-62 6.18 µM | UO-31 5.53 µM

CC(=O)/C=C(/C=N/O)c1ccccc1
inactive: 786-0 > 100 µM | CAKI-1 > 100 µM | HCT-116 > 100 µM | Hs-578T > 100 µM | MCF7 > 100 µM | MDA-N > 100 µM | MOLT-4 > 100 µM | NCI-H226 > 100 µM | NCI-H23 > 100 µM | NCI-H522 > 100 µM | PC-3 > 100 µM | RPMI-8226 > 100 µM | SR > 100 µM | SW-620 > 100 µM | TK-10 > 100 µM | U-251 > 100 µM | UACC-62 > 100 µM | UO-31 > 100 µM

O=C1C(NCCc2cc(Cl)c(O)c(Cl)c2)=CC(=O)c2[nH]cnc21
inactive: 786-0 55.5 µM | A498 75.7 µM | HCT-116 27.1 µM | Hs-578T 80 µM | MCF7 26.9 µM | MDA-N 19.6 µM | MOLT-4 24.3 µM | NCI-H23 17.9 µM | NCI-H522 12.8 µM | PC-3 45.9 µM | RPMI-8226 46.7 µM | SR 32.6 µM | SW-620 47.8 µM | TK-10 51.8 µM | U-251 39.7 µM | UACC-62 18.8 µM | UO-31 > 100 µM

CCOC(=O)C1=CCOc2cc(N(C)C)ccc21
inactive: 786-0 > 100 µM | A498 > 100 µM | CAKI-1 > 100 µM | HCT-116 > 100 µM | Hs-578T > 100 µM | MCF7 > 100 µM | MDA-N > 100 µM | NCI-H226 > 100 µM | NCI-H23 > 100 µM | NCI-H522 45.3 µM | PC-3 > 100 µM | RPMI-8226 > 100 µM | SR 65.9 µM | SW-620 > 100 µM | TK-10 > 100 µM | U-251 > 100 µM | UACC-62 > 100 µM | UO-31 > 100 µM

Cc1cc2c3ccccc3[nH]c2c2ccnc(C)c12
inactive: 786-0 1.65 µM | CAKI-1 19 µM | HCT-116 2.21 µM | HOP-92 5.11 µM | Hs-578T 13.6 µM | MCF7 27.9 µM | MDA-N 1.71 µM | MOLT-4 7.16 µM | NCI-H226 13.4 µM | NCI-H23 12.5 µM | NCI-H522 2.65 µM | PC-3 10.2 µM | RPMI-8226 3.21 µM | SR 6.62 µM | SW-620 2.47 µM | TK-10 14.2 µM | U-251 2.24 µM | UACC-62 7.36 µM | UO-31 14.2 µM

CCOC(=O)c1c(NC(=O)c2ccc(Br)cc2)sc2c1CCCC2
inactive: 786-0 > 100 µM | A498 25.1 µM | CAKI-1 > 100 µM | HCT-116 > 100 µM | Hs-578T 75.5 µM | MCF7 > 100 µM | MDA-N > 100 µM | MOLT-4 > 100 µM | NCI-H226 > 100 µM | NCI-H23 > 100 µM | PC-3 > 100 µM | RPMI-8226 > 100 µM | SR > 100 µM | SW-620 > 100 µM | TK-10 > 100 µM | U-251 > 100 µM | UACC-62 > 100 µM | UO-31 > 100 µM

Cc1csc2c1-n1cccc1C2=O
inactive: 786-0 > 100 µM | A498 36 µM | CAKI-1 65.8 µM | HCT-116 > 100 µM | Hs-578T > 100 µM | MCF7 > 100 µM | MDA-N 99.1 µM | MOLT-4 > 100 µM | NCI-H226 > 100 µM | NCI-H522 > 100 µM | PC-3 > 100 µM | RPMI-8226 > 100 µM | SR > 100 µM | SW-620 > 100 µM | TK-10 > 100 µM | U-251 > 100 µM | UACC-62 > 100 µM | UO-31 43.3 µM

O=C1CSC(c2ccc([N+](=O)[O-])cc2)N1c1nc(-c2ccc3c(c2)CCCC3)cs1 (configuration not stated)
inactive: 786-0 > 100 µM | A498 > 100 µM | CAKI-1 > 100 µM | HCT-116 > 100 µM | Hs-578T > 100 µM | MCF7 31.7 µM | MDA-N > 100 µM | MOLT-4 > 100 µM | NCI-H226 > 100 µM | NCI-H23 > 100 µM | NCI-H522 > 100 µM | PC-3 > 100 µM | RPMI-8226 > 100 µM | SR > 100 µM | SW-620 > 100 µM | TK-10 > 100 µM | U-251 > 100 µM | UACC-62 63.1 µM | UO-31 > 100 µM

CCN(CC)C(=S)Nc1ccc(-c2cc3ccc(O)cc3oc2=O)cc1
inactive: 786-0 39.4 µM | A498 20.8 µM | CAKI-1 31.2 µM | HCT-116 26.1 µM | Hs-578T 25.4 µM | MCF7 > 10 µM | MDA-N 24.8 µM | MOLT-4 13.4 µM | NCI-H226 25.6 µM | NCI-H23 29.7 µM | NCI-H522 17 µM | PC-3 23.4 µM | RPMI-8226 21.6 µM | SR 14.5 µM | SW-620 34 µM | TK-10 39 µM | U-251 11.8 µM | UACC-62 32.4 µM | UO-31 17.5 µM
